What was measured:
[1] = system: human cervical epidermoid carcinoma cell line Hela; assay: Cell growth test (Cell Titer Glo) Hela; format: cell-based; details: 3 to 5 days
From the text: (§1) The human undifferentiated thymoma cell line Ty-82 (JCRB), the human acute myeloid leukemia cell lines MV4-11 (ATCC), MOLM-13 (ATCC) and RS4-11 (ATCC), the human lymphoma cell line Raji (JCRB), the human cervical epidermoid carcinoma cell line Hela (JCRB), the human lung adenocarcinoma cell line A549 (ATCC), the human colon cancer cell lines DLD1 (DS Pharma) and HCT116 (DS Pharma), and the human pancreatic cancer cell line MIAPACA-2 (ATCC) were used to carry out a cell growth test.
(§2) Ty-82, MV4-11, MOLM-13, RS4-11, Raji and DLD1 were each seeded in a well plate, in which Roswell Park Memorial Institute (RPMI)-1640 medium supplemented with penicillin/streptomycin and fetal bovine serum (FBS) with a final concentration of 10% was placed. Hela was seeded in Dulbecco's Modified Eagle's medium (DMEM) supplemented with penicillin/streptomycin and FBS with a final concentration of 10%. A549 and MIAPACA-2 were each seeded in a well plate, in which Minimum Essential Medium (MEM) supplemented with penicillin/streptomycin and FBS with a final concentration of 10% was placed. […]
(§3) Thereafter, a medium containing a test compound serially diluted with DMSO, or DMSO, was added to each well of the plate, in which the cells had been seeded, and the obtained mixture was then cultured under conditions of 37° C. and 5% CO2 for 3 to 5 days. Cell Titer Glo reaction solution (Promega) was added to the culture, and the amount of luminescence was then measured using Envision plate reader (PerkinElmer). Since the amount of luminescence is in proportion to the concentration of adenosine triphosphate (ATP) in cells, the amount of luminescence was used as an indicator of the number of living cells. The growth inhibition percentage of the test compound in each concentration was calculated according to the following equation. Growth inhibition percentage (%)=(amount of luminescence in test compound−added well)/(amount of luminescence in DMSO−added well)×100 […]

c-Myc protein = assay: Expression of c-Myc protein in Ty-82 cells, Western blotting; format: cell-based, human; details: 100 nmol/L, 24 hours
Description: It has been known that the antitumor action of a bromodomain inhibitor is associated with a c-Myc protein. Please refer to, for example, Non-Patent Document 3: Delmore J E et al., Cell, Vol. 146, pp. 904 to 917, 2011. With reference to the method described in Non-Patent Document 3, the ability of the compound of the present example to inhibit the expression of a c-Myc protein in cancer cells was evaluated according to Western blotting.
The human undifferentiated thymoma cell line Ty-82 (JCRB) used in the evaluation was seeded in a 6-well plate, in which an RPMI-1640 medium supplemented with penicillin/streptomycin and FBS with a final concentration of 10% was placed. A medium containing a test compound serially diluted with dimethyl sulfoxide (DMSO), or DMSO, was added to each well of the 6-well plate in which the cells had been seeded, and the obtained mixture was then cultured under conditions of 37° C. and 5% CO2 for 24 hours. Thereafter, the cells were recovered, and were then washed with PBS. After that, Lysis Buffer (10-fold diluted Cell Lysis Buffer (10×) (CST Japan), to which Halt Protease and Phosphatase Inhibitor Cocktail (Thermofisher Scientific) were added) was added to the resulting cells. The above-described cell suspension was subjected to an ultrasonic treatment to disintegrate the cells, and was then centrifuged to recover a supernatant. Sample buffer was added thereto, and the obtained mixture was then heated at 95° C. for 5 minutes.
A sample prepared from the above-described supernatant was loaded at a protein mass of 10 μg/lane on XV PANTERA GEL 7.5%-15% (D.R.C), and was then subjected to electrophoresis. The electrophoresed protein was transcribed on a transcription membrane, and was then inoculated with Anti-Myc antibody (CST, Catalog No. 9402) and then with IRDye® 680LT Donkey anti-Rabbit IgG (H+L) (LI-COR). Using Odessey (LI-COR), the fluorescence intensity at an excitation wavelength of 700 nm was measured, and the expression level of the c-Myc protein was then quantified.

[2] = system: human lymphoma cell line Raji; assay: Cell growth test (Cell Titer Glo) Raji; format: cell-based; details: 3 to 5 days
From the text: as §1, §2, §3

BRD2 BD2 = molecular target: T1, BRD2 BD2 (Homo sapiens, UniProt P25440); assay: Binding assay, BRD2 BD2 to acetylated histone H4 Peptide-Biotin (EPIgeneous Binding Domain Kit B); details: for inhibition at 0.3 µM: test compound at 300 nmol/L, read-out: Binding inhibition percentage BRD2 BD2
T1 construct: BRD2 BD2, BRD3 BD2 and BRD4 BD2 (Cisbio); purchased Cisbio
T1 sequence (P25440 344-453 limits assumed): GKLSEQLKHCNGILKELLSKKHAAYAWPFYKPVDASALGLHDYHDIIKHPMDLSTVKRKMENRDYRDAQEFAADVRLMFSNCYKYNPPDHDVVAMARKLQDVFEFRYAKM
Summary of the method: (§4)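 HTRF binding of GST-tagged BD2 (20 nmol/L working stock) to biotinylated acetyl-histone H4 peptide (250 nmol/L working stock), using streptavidin-XL665 and anti-GST Eu cryptate. Incubated 20 h at room temperature; 665/620 nm ratio versus DMSO gives % inhibition; IC50 by four-parameter fit, or % inhibition at 300 nmol/L.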

[3] = system: human acute myeloid leukemia cell line RS4-11; assay: Cell growth test (Cell Titer Glo) RS4-11; format: cell-based; details: RS4-11, Acute myeloid leukemia, 3 to 5 days
From the text: as §1, §2, §3

BRD4 BD2 = molecular target: T2, BRD4 BD2 (Homo sapiens, UniProt O60885); assay: Binding assay, BRD4 BD2 to acetylated histone H4 Peptide-Biotin (EPIgeneous Binding Domain Kit B); details: for inhibition at 0.3 µM: test compound at 300 nmol/L, read-out: Binding inhibition percentage BRD4 BD2
T2 construct: BRD2 BD2, BRD3 BD2 and BRD4 BD2 (Cisbio); purchased Cisbio
Summary of the method: as §4

[4] = system: human undifferentiated thymoma cell line Ty-82; assay: Cell growth test (Cell Titer Glo) Ty-82; format: cell-based; details: TY82, 3 to 5 days
From the text: as §1
Ty-82, MV4-11, MOLM-13, RS4-11, Raji and DLD1 were each seeded in a well plate, in which Roswell Park Memorial Institute (RPMI)-1640 medium supplemented with penicillin/streptomycin and fetal bovine serum (FBS) with a final concentration of 10% was placed. Hela was seeded in Dulbecco's Modified Eagle's medium (DMEM) supplemented with penicillin/streptomycin and FBS with a final concentration of 10%. A549 and MIAPACA-2 were each seeded in a well plate, in which Minimum Essential Medium (MEM) supplemented with penicillin/streptomycin and FBS with a final concentration of 10% was placed. HCT116 was seeded in a well plate, in which McCoy's 5A medium supplemented with penicillin/streptomycin and FBS with a final concentration of 10% was placed.
Thereafter, a medium containing a test compound serially diluted with DMSO, or DMSO, was added to each well of the plate, in which the cells had been seeded, and the obtained mixture was then cultured under conditions of 37° C. and 5% CO2 for 3 to 5 days. Cell Titer Glo reaction solution (Promega) was added to the culture, and the amount of luminescence was then measured using Envision plate reader (PerkinElmer). Since the amount of luminescence is in proportion to the concentration of adenosine triphosphate (ATP) in cells, the amount of luminescence was used as an indicator of the number of living cells. The growth inhibition percentage of the test compound in each concentration was calculated according to the following equation. Growth inhibition percentage (%)=(amount of luminescence in test compound−added well)/(amount of luminescence in DMSO−added well)×100
The growth inhibition percentage of the test compound in each concentration was plotted by performing a non-linear regression analysis [(log (inhibitor) vs. response—Variable slope (four parameters)], using Graphpad prism 5, and a 50% growth inhibitory concentration [GI50 (nmol/L)] was then calculated.

Row | SMILES | GI50 [1] [nM] | expression level of c-Myc protein (c-Myc protein) | GI50 [2] [nM] | IC50 (BRD2 BD2) [nM] | inhibition at 0.3 µM (BRD2 BD2) [%] | GI50 [3] [nM] | IC50 (BRD4 BD2) [nM] | inhibition at 0.3 µM (BRD4 BD2) [%] | GI50 [4] [nM]
1 | CCn1c(=O)cc(C2CCN(C)CC2)c2cc(C(=O)N(C)c3ccc(C)cc3)ccc21 [Example 14, 1-Ethyl-N-methyl-N-(4-methylphenyl)-4-(1-methylpiperidin-4-yl)-2-oxo-1,2-dihydroquinoline-6-carboxamide] | 570 | significantly reduced | 60 | 94 | 74 | 66 | 27 | 82 | 12
2 | CCn1c(=O)cc(C2CCN(C)CC2)c2cc(C(=O)N(C)c3ccc4c(c3)CCC4)ccc21 [Example 17, N-(2,3-dihydro-1H-inden-5-yl)-1-ethyl-N-methyl-4-(1-methylpiperidin-4-yl)-2-oxo-1,2-dihydroquinoline-6-carboxamide] | 314 | significantly reduced | 23 | 33 | 85 | 30 | 10 | 88 | 6
3 | CCn1c(=O)cc(N2CCOCC2)c2cc(-n3c(-c4ccc(Cl)cc4)c[nH]c3=O)ccc21 [Example 245, 6-(5-(4-chlorophenyl)-2-oxo-2,3-dihydro-1H-imidazol-1-yl)-1-ethyl-4-(morpholin-4-yl)quinolin-2(1H)-one] | 1860 | significantly reduced | 97 | 7 | 89 | 85 | 3 | 88 | 10

Source: US10987349B2, “Antitumor agent and bromodomain inhibitor” (FUJIFILM Corporation, priority 2016, dated 2021)
